Measured values reported in ChEMBL document CHEMBL1782020, “Novel 7-phenylsulfanyl-1,2,3,4,10,10a-hexahydro-pyrazino[1,2-a]indoles as dual serotonin 5-HT2C and 5-HT6 receptor ligands” (Bioorg Med Chem Lett, 2010).

Assays:
[1] = target: T1, 5-hydroxytryptamine receptor 2C (Homo sapiens, UniProt P28335); assay: Displacement of [3H]mesulergine from human 5HT2C receptor in human tsA201 cells; assay type: cell-based
T1 sequence (P28335 whole entry): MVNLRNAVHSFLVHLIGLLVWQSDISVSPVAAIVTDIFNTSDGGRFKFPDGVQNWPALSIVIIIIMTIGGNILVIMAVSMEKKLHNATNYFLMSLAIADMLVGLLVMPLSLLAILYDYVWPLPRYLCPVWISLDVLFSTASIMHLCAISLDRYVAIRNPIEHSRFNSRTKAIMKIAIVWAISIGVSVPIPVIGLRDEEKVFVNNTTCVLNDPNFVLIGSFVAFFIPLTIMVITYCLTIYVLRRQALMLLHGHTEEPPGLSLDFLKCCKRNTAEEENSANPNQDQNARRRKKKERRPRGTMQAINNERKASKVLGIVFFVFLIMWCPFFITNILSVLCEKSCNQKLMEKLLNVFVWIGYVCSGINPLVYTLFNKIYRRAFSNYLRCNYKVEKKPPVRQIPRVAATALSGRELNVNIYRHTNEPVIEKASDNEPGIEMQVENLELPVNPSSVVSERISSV

[2] = target: 5-hydroxytryptamine receptor 6 (Homo sapiens, UniProt P50406); assay: Displacement of [3H]5-LSD from human 5HT6 receptor expressed in human HeLa cells; assay type: cell-based
Chain of 5-hydroxytryptamine receptor 6 (P50406 whole entry): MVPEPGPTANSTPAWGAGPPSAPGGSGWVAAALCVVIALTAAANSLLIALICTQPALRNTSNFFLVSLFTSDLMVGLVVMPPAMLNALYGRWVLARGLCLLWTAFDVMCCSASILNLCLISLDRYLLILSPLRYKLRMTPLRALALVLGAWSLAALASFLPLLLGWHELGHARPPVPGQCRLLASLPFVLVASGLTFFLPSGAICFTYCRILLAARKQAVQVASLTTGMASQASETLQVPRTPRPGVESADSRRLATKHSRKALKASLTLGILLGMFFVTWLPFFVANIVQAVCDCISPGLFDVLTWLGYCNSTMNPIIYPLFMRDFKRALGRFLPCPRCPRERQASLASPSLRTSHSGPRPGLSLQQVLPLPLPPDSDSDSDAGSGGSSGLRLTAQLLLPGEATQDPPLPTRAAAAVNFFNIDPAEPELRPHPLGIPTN

| SMILES | Ki [1] | Ki [2] |
| --- | --- | --- |
| c1ccc(Sc2cccc(N3CCNCC3)c2)cc1 | 91 nM | – |
| COc1ccc(Sc2cccc(N3CCNCC3)c2)cc1 | 74 nM | – |
| Cc1cccc(Sc2ccc3c(c2)N2CCNCC2C3)c1 (stereo unspecified) | 77 nM | 50 nM |
| Cc1ccc(Sc2ccc3c(c2)N2CCNCC2C3)cc1 (stereo unspecified) | 68 nM | 110 nM |
| COc1cccc(Sc2ccc3c(c2)N2CCNCC2C3)c1 (stereo unspecified) | 120 nM | 110 nM |
| COc1ccc(Sc2ccc3c(c2)N2CCNCC2C3)cc1 (stereo unspecified) | 57 nM | 78 nM |
| FC(F)(F)c1cccc(Sc2ccc3c(c2)N2CCNCC2C3)c1 (stereo unspecified) | 180 nM | 300 nM |
| FC(F)(F)c1ccc(Sc2ccc3c(c2)N2CCNCC2C3)cc1 (stereo unspecified) | 280 nM | 760 nM |
| NCCc1cccc(Sc2ccccc2)c1 | 150 nM | – |
| O=C1NCCN1CCN1CCC(c2cn(-c3ccc(F)cc3)c3ccc(Cl)cc23)CC1 [SERTINDOLE] | – | 5 nM |

Other lines, results leading:

| Ki [1] | Ki [2] | SMILES |
| --- | --- | --- |
| 49 nM | 81 nM | Cc1ccccc1Sc1ccc2c(c1)N1CCNCC1C2 (stereo unspecified) |
| 41 nM | 23 nM | COc1ccccc1Sc1ccc2c(c1)N1CCNCC1C2 (stereo unspecified) |
| 49 nM | 150 nM | Fc1ccccc1Sc1ccc2c(c1)N1CCNCC1C2 (stereo unspecified) |
| 61 nM | 160 nM | Fc1ccc(Sc2ccc3c(c2)N2CCNCC2C3)cc1 (stereo unspecified) |
| 83 nM | 330 nM | FC(F)(F)c1ccccc1Sc1ccc2c(c1)N1CCNCC1C2 (stereo unspecified) |
